Measured values taken from patent US20060069039A1, “Treatment of dyskinesia” (priority 2002, published 2006).
Counter-ions that a name gives are not always drawn.

Key:
[1] = cited from earlier work
MPTP-lesioned marmosets = assay: L-DOPA-induced dyskinesia and parkinsonian disability in the MPTP-lesioned marmoset model of Parkinson's disease; assay type: in vivo, marmosets (Callithrix jacchuis); settings: topiramate oral plus L-DOPA 15 mg/kg, n=6
From the text: The MPTP-lesioned primate represents the best animal model of Parkinson's disease and L-DOPA-induced dyskinesia, the most common form of dyskinesia encountered in the clinical situation. The pathology, symptomatology and response of symptoms to treatments and production of side effects following treatment are very similar in the MPTP-lesioned primate to those seen in Parkinson's disease patients. Thus, when untreated, MPTP-lesioned primates show parkinsonian symptoms such as reduced range of movement, reduced speed of movement (bradykinesia) and an abnormal, hunched, parkinsonian posture. […] A study was performed on six adult marmosets (Callithrix jacchuis) to assess the ability of topiramate to reduce dyskinesia, specifically L-DOPA-induced dyskinesia. The marmosets were rendered parkinsonian by subcutaneous injection of 2 mg/kg MPTP for 5 consecutive days. […] The degree of activity and disability before and after MPTP treatment were assessed using a combination of scales that measure locomotor activity, mobility, bradykinesia and posture (see below). […] Behavior was assessed for 6 hours post drug administration. […] Data were collected for each one hour time period for severity of dyskinesia and were analyzed with a Wilcoxon matched pairs test (the software used was Prism version 3.0, GraphPad Software Inc). […]

essential tremor = settings: clinical trial; cited from earlier work

CCN(CC)CCNC(=O)c1cc(Cl)c(N)cc1OC [Metoclopramide hydrochloride, 4-amino-5-chloro-N-[2-(diethylamino)ethyl]-2-methoxy benzamide monohydrochloride monohydrate]
solubility in water ([1]; water): freely soluble

CC1(C)O[C@@H]2[C@@H](CO[C@@]3(COS(N)(=O)=O)OC(C)(C)O[C@@H]23)O1 [Topiramate, 2,3:4,5-bis-O-(1-methylethylidene)-β-D-fructopyranose sulfamate]
solubility in alkaline solutions ([1]; alkaline solutions containing sodium hydroxide or sodium phosphate, pH of 9 to 10): most soluble | solubility in acetone, chloroform, dimethylsulfoxide and ethanol ([1]; organic solvents): freely soluble | pH of saturated solution ([1]; saturated solution): 6.3 | dyskinesia following topiramate and L-DOPA in comparison to L-DOPA alone (MPTP-lesioned marmosets; Wilcoxon P<0.05 at 0-1 h and 1-2 h, P>0.05 at 2-3 h): less dyskinesia | effect on the anti-Parkinsonian action of L-DOPA (parkinsonian disability) (MPTP-lesioned marmosets; Wilcoxon P>0.05): without major effect | mean improvement in tremor (essential tremor): 25%
